Results as given in ChEMBL document CHEMBL1132761, “Novel Dmt-Tic dipeptide analogues as selective delta-opioid receptor antagonists” (Bioorg Med Chem Lett, 2000).
pEC50, pIC50: −log10 of the molar value. Non-standard residues stand in square brackets, D forms with d. Residues, ends and D or L forms follow the SMILES beside them. Dmt = Cc1cc(O)cc(C)c1C[C@H](N)C(=O)O; Tic = O=C(O)[C@@H]1Cc2ccccc2CN1

What was measured:
[1] = target: T1, Delta-type opioid receptor (Homo sapiens, UniProt P41143); experiment: Compound was evaluated for binding affinity towards Opioid receptor delta 1 by displacing 125 I-deltorphin II
[2] = target: Opioid receptors; mu & delta (Homo sapiens) (UniProt P41143+P35372); experiment: Ratio of binding affinity of compound to mu receptor compared to that of delta receptor (Mu/Delta); format: protein assay
Mu-type opioid receptor = Mu-type opioid receptor (Homo sapiens, UniProt P35372); experiment: Compound was evaluated for binding affinity towards Opioid receptor mu 1 by displacing 125 I-FK-33824
[3] = target: Kappa-type opioid receptor (Homo sapiens, UniProt P41145); experiment: Compound was evaluated for binding affinity towards Opioid receptor kappa 1 by displacing 125 I-DPDYN
[4] = target: T1, Delta-type opioid receptor; experiment: Effective concentration for agonistic activity towards delta opioid receptor was determined by [35S]GTP-gamma-S functional assay
[5] = target: T1, Delta-type opioid receptor; experiment: Compound was tested for its ability to block the effect of selective delta opioid agonist SNC-80 in the functional assay

Kappa-type opioid receptor, sequence (P41145 whole entry): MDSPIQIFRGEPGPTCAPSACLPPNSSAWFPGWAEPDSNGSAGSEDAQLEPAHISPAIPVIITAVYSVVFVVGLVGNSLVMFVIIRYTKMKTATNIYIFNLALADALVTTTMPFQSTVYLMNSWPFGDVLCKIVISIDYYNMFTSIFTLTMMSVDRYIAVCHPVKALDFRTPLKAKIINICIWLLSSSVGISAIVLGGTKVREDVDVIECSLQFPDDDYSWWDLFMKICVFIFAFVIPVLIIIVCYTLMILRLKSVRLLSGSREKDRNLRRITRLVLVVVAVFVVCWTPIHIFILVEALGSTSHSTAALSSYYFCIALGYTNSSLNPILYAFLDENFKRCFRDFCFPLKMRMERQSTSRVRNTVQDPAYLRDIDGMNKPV
Mu-type opioid receptor, sequence (P35372 whole entry): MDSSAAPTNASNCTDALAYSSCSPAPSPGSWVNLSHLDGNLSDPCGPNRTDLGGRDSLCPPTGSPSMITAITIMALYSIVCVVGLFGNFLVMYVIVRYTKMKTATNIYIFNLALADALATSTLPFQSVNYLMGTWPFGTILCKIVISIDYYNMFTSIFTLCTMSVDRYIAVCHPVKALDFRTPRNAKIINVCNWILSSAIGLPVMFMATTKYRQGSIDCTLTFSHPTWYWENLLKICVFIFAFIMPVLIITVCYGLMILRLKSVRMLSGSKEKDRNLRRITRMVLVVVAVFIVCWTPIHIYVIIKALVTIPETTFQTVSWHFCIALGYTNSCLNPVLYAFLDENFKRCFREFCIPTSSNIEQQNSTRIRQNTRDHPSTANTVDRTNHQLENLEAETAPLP
Opioid receptors; mu & delta (Homo sapiens), sequence (P35372 whole entry, looked up): as the sequence (P35372 whole entry) above
Opioid receptors; mu & delta (Homo sapiens), sequence (P41143 whole entry, looked up): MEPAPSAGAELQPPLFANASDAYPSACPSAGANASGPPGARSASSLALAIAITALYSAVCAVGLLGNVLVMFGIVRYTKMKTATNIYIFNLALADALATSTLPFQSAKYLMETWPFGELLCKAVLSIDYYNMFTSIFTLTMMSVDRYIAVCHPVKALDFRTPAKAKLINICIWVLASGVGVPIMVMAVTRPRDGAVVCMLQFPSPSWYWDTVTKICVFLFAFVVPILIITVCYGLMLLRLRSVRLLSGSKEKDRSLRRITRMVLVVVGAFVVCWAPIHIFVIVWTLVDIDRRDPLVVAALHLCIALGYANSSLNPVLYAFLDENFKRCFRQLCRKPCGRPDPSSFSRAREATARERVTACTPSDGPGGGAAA
T1 sequence (P41143 whole entry): as the sequence (P41143 whole entry, looked up) above

COc1c(Br)cc2c(c1Br)CN(C(=O)[C@H](N)Cc1c(C)cc(O)cc1C)[C@H](C(=O)O)C2
pIC50 [1]: 6.24
Ratio [2]: 14.4
pIC50 (Mu-type opioid receptor): 5.08

Cc1cc(O)cc(C)c1CC(N)C(=O)N1Cc2cc(-c3ccsc3)ccc2C[C@H]1C(=O)O (stereo partly drawn)
pIC50 [3]: 5.56
pIC50 [1]: 7.87
Ratio [2]: 10.5
pIC50 (Mu-type opioid receptor): 6.85

Cc1cc(O)cc(C)c1C[C@H](N)C(=O)N1Cc2c(cc(Br)c(O)c2Br)C[C@H]1C(=O)O
pIC50 [3]: < 5.00
pIC50 [1]: 5.97
Ratio [2]: 1.1
pIC50 (Mu-type opioid receptor): 5.91

COc1c(Br)cc2c(c1Br)CN(C(=O)[C@@H](N)Cc1c(C)cc(O)cc1C)[C@H](C(=O)O)C2
pEC50 [4]: 7.55
pIC50 [3]: < 5.00
pIC50 [1]: 8.60
Ratio [2]: 505
pIC50 (Mu-type opioid receptor): 5.78

Cc1cc(O)cc(C)c1CC(N)C(=O)N1Cc2cc(-c3cc4ccccc4o3)ccc2C[C@H]1C(=O)O (stereo partly drawn)
pIC50 [3]: < 5.00
pIC50 [1]: 7.28
pIC50 (Mu-type opioid receptor): 5.61

COc1ccc(-c2ccc3c(c2)CN(C(=O)C(N)Cc2c(C)cc(O)cc2C)[C@H](C(=O)O)C3)cc1 (stereo partly drawn)
Ke [5]: 38.6 nM
pIC50 [3]: < 5.00
pIC50 [1]: 8.31
Ratio [2]: 546
pIC50 (Mu-type opioid receptor): 5.58

Cc1cc(O)cc(C)c1C[C@@H](N)C(=O)N1Cc2c(cc(Br)c(O)c2Br)C[C@H]1C(=O)O
pIC50 [1]: < 5.00
pIC50 (Mu-type opioid receptor): 5.09

Cc1cc(O)cc(C)c1CC(N)C(=O)N1Cc2cc(O)ccc2C[C@H]1C(=O)O (stereo partly drawn)
pIC50 [3]: 5.03
pIC50 [1]: 6.63
Ratio [2]: 9.2
pIC50 (Mu-type opioid receptor): 5.67

COc1ccc2c(c1)CN(C(=O)C(N)Cc1c(C)cc(O)cc1C)[C@H](C(=O)O)C2 (stereo partly drawn)
pIC50 [3]: 5.05
pIC50 [1]: 7.96
Ratio [2]: 211
pIC50 (Mu-type opioid receptor): 5.64

COc1ccc(-c2cc3c(cc2OC)CN(C(=O)C(N)Cc2c(C)cc(O)cc2C)[C@H](C(=O)O)C3)cc1 (stereo partly drawn)
pIC50 [3]: < 5.00
pIC50 [1]: 5.82
Ratio [2]: 3.1
pIC50 (Mu-type opioid receptor): 5.33

Cc1cc(O)cc(C)c1C[C@@H](N)C(=O)N1Cc2cc(-c3ccc(F)cc3)ccc2C[C@H]1C(=O)O
pIC50 [3]: < 5.00
pIC50 [1]: 7.09

Cc1cc(O)cc(C)c1C[C@H](N)C(=O)N1Cc2cc(-c3ccccc3)ccc2C[C@H]1C(=O)O
pIC50 [3]: 5.24
pIC50 [1]: 7.88
Ratio [2]: 48.1
pIC50 (Mu-type opioid receptor): 6.20

COc1cc2c(cc1-c1ccc(F)cc1)C[C@@H](C(=O)O)N(C(=O)C(N)Cc1c(C)cc(O)cc1C)C2 (stereo partly drawn)
pIC50 [3]: < 5.00
pIC50 [1]: 5.94
Ratio [2]: 6.2
pIC50 (Mu-type opioid receptor): 5.14

Cc1cc(O)cc(C)c1C[C@H](N)C(=O)N1Cc2ccccc2C[C@H]1C(=O)O (H-[Dmt]-[Tic]-OH)
Ke [5]: 5.3 nM
pIC50 [3]: 4.43
pIC50 [1]: 8.80
Ratio [2]: 558
pIC50 (Mu-type opioid receptor): 6.05

COc1ccc2c(c1)CN(C(=O)[C@@H](N)Cc1c(C)cc(O)cc1C)[C@H](C(=O)O)C2
pIC50 [3]: 5.03
pIC50 [1]: 7.92
Ratio [2]: 237
pIC50 (Mu-type opioid receptor): 5.54

Cc1cc(O)cc(C)c1C[C@H](N)C(=O)N1Cc2cc(-c3ccc(F)cc3)ccc2C[C@H]1C(=O)O
Ke [5]: 11.5 nM
pIC50 [3]: 5.12
pIC50 [1]: 8.42
Ratio [2]: 155
pIC50 (Mu-type opioid receptor): 6.23

COc1cc2c(cc1-c1ccccc1)C[C@@H](C(=O)O)N(C(=O)C(N)Cc1c(C)cc(O)cc1C)C2 (stereo partly drawn)
pIC50 [3]: < 5.00
pIC50 [1]: 5.60
pIC50 (Mu-type opioid receptor): < 5.00

Cc1cc(O)cc(C)c1C[C@@H](N)C(=O)N1Cc2cc(-c3ccccc3)ccc2C[C@H]1C(=O)O
pIC50 [3]: < 5.00
pIC50 [1]: 6.91
Ratio [2]: 15.9
pIC50 (Mu-type opioid receptor): 5.71

COc1ccc(-c2ccc3c(c2)CN(C(=O)[C@@H](N)Cc2c(C)cc(O)cc2C)[C@H](C(=O)O)C3)cc1
pIC50 [3]: < 5.00
pIC50 [1]: 8.24
Ratio [2]: 211
pIC50 (Mu-type opioid receptor): 5.94
